In PMC9459403, “New inhibitors of cathepsin V impair tumor cell proliferation and elastin degradation and increase immune cell cytotoxicity” (Computational and Structural Biotechnology Journal, 2022):

Experiments:
[1] = tested on: TALL-104 effector cells on target K-562 cells; test: Calcein AM release assay (cytotoxicity); format: cell-based, human; settings: effector cells treated 10 µM, 6 h
Procedure: (§1) Effector cells (NK-92 or TALL-104; 1 × 10^6/ml) were treated with E-64d (10 µM) or compound 7 (10 µM) for 6 h. NK-92 cells were pre-treated with 1000 IU IL2/mL overnight prior to the addition of inhibitors. Effector cells were added to a 96-well U-bottom plate to achieve a selected effector-to-target ratio (E:T). Target K-562 cells were labelled with 15 µM Calcein-AM (Sigma) in serum-free RPMI 1640 medium for 30 min at 37 °C. Cells were then washed twice and resuspended in complete RPMI 1640 medium. Target cells (n = 5000) were added to the effectors. The plate was centrifuged at 200 × g for 1 min and incubated at 37 °C and 5 % CO2 for 4 h. After incubation, the plate was centrifuged at 700 × g for 5 min. The supernatant (50 µL) was transferred to a new microtiter plate to measure the fluorescence of the released Calcein-AM with a Tecan M1000 microtiter plate reader using 496 nm excitation and 516 nm emission filters. The percentage of cytotoxicity was calculated as follows: 100(test release-spontaneous release)/(total release-spontaneous release). Spontaneous release was measured in wells containing only target cells. For total release, 2 % Triton X-100 was added to the wells to achieve lysis of target cells. Lytic units (LU) were calculated using the inverse of the number of effector cells needed to lyse 30 % of the target cells multiplied by 100.

[2] = tested on: NK-92 effector cells on target K-562 cells; test: Calcein AM release assay (cytotoxicity); format: cell-based, human; settings: effector cells treated 10 µM, 6 h
Procedure: as §1

## O=C(NCc1cccc2ccccc12)NCC1CCN(C(=O)Oc2ccccc2)CC1 [Compound 7, Phenyl 4-((3-(naphthalen-1-ylmethyl)ureido)methyl)piperidine-1-carboxylate]
[1]
  cytotoxicity of TALL-104 cells (target cell killing): significantly increased
[2]
  cytotoxicity of NK-92 cells (target cell killing): significantly increased
